According to patent publication US4067997A, “Synergistic microbecidal composition and method” (priority 1976, dated 1978):
Values after ≈ are worked out from the molar mass of the structure shown. Counter-ions that a name gives are not always drawn. Like-named read-outs stand apart in the source and are kept apart here.

Experiments:
Type in all cases: cell-based
[1] = system: nine gram-positive organisms and the yeast/fungus Candida; assay: MIC, broth dilution, over all organisms (Examples I/II); settings: for MIC: read-out: MIC range
Method: In order to establish comparative bactericidal and fungicidal results with homologous fatty acids, a series of experiments was performed with thirty straight-chain fatty acids and derivatives thereof. Eight different gram-negative and twelve different gram-positive organisms, representing a very broad spectrum of organisms, were used in these experiments including the fungus Candida (a yeast). Additionally, fatty acids were chosen to show the effects of saturation versus unsaturation, in the fatty acid claim. Standard solutions of the fatty acids and their derivatives were prepared by first dissolving the weighed compounds in 1 to 2 ml of 95% ethanol and immediately pouring this solution into 200 ml of Tripticase Soy Broth. These lipid compounds which are insoluble in water and broth precipitated into very small crystals or droplets. The tubes containing the suspension were warmed to approximately 70° C and were then placed in an ultrasonic tank for further solubilization of the lipid derivatives.
Standard solutions (or suspensions) at 1,000 μg/ml were twofold serially diluted with additional broth to a concentration of 125 μg/ml. A 4-ml amount of each dilution was then quickly, and with constant agitation, dispensed into appropriately labeled screw-capped glass tubes (16 by 125 mm). The tubes were sterilized with steam at 15 psi for 15 minutes. After sterilization, all tubes were cooled and incubated overnight at 35° C to insure sterility.
All compounds were compared on a molar (micromoles/milliliter) rather than on a mass basis. In the following lists of organisms used, those followed by a parenthetical number are registered with the American Type Culture Collection (ATCC); the remainder were isolates from Providence Hospital or Northland Laboratory.
Staphylococcus aureus, S. epidermidis, beta-hemolytic streptococci (Group A and non-group A), group D streptococcus, Bacillus subtilis (6051), Sarcina lutea (9431), Micrococcus sp., Candida albicans, Nocardia asteroids (3308), Corynebacterium sp. (10700), and pneumococcus (63001).
One drop (0.04 ± 0.01 ml) of an 18-hr broth culture containing 10^7 and 10^9 organisms/ml was added to each dilution of the test compound, as well as to a tube of plain broth which served as the positive control. After inoculation, the contents of each tube were well mixed, and the tubes were incubated at 35° C in a 5% carbon dioxide + […] atmosphere.
The MIC is defined as the lowest concentration of compound at which no […] evidence of growth was observed when turbidity of the inoculated broth dilutions was compared with control tubes. […] Only a one-tube difference between the bactericidal and bacteriostatic concentrations was normally observed.
Table 5 presents a comparison of the C10 and C12 free acids and their glyceryl derivatives, and Table 6 gives the corresponding ranges of activity.
Standard solutions (1000 μg/ml) of three fatty acids and polyglycerol esters thereof were prepared as described in Example I. Also sucrose esters were prepared by transferring the weighed compounds (0.2 gm. dissolved in 1 ml absolute methanol) into 200 ml of sterile Trypticase Soy Broth (TSB). These standard solutions (1000 μg/ml) were twofold serially diluted with additional sterile broth to a concentration of 125 μg/ml. A 3.8 aliquot of each dilution was asceptically delivered into sterile screw-capped culture tubes. All tubes were incubated overnight at 36° C to insure sterility. The microorganisms used in this example were the same as those used in Example I.
The inoculum, 0.05 ml of an 13-24 hour TSB culture (approximately 10^9 organisms/ml) was asceptically delivered into all dilutions of the compounds, mixed well, and incubated at 36° C. […]

Escherichia coli = assay: MIC on mass basis (Example V procedure); settings: Escherichia coli, read-out: MIC
Method: (§1) The essential procedure of Example I was followed with a series of phenolic compounds, with the exception that the test method was conducted on a mass (μg/ml) basis rather than a molecular (mol/ml) basis of the foregoing tests, since the long established phenol-coeffecient test is on a mass rather than molecular basis. Additionally, a different but closely related group of organisms were used in this test, in order to give a complete representative span on gram-negative, gram-positive and fungus organisms. Additionally, the phenolic derivatives chosen for test purposes include a number of derivatives which are presently accepted by the FDA as food-grade phenolic microbicides.
(§2) The same procedure of Example V was repeated but with combinations of mono-laurin (GML).
(§3) The procedure of Example V was repeated with combinations of glycerol mono-laurin (GML) and ethylenediamine tetraacetic acid (EDTA) as the calcium salt and in combination with BHA.

Candida albicans = assay: MIC on mass basis (Example V procedure); settings: Candida albicans, read-out: MIC
Method: as §1, §2, §3

Staphylococcus aureus = assay: MIC on mass basis (Example V procedure); settings: Staphylococcus aureus, read-out: MIC
Method: as §1, §2, §3

Saccharomyces cerevisiae = assay: MIC on mass basis (Example V procedure); settings: Saccharomyces cerevisiae, read-out: MIC
Method: as §1, §2, §3

Pseudomonas aeruginosa = assay: MIC on mass basis (Example V procedure); settings: Pseudomonas aeruginosa, read-out: MIC
Method: as §1, §2, §3

Nocardia asteroides = assay: MIC on mass basis (Example V procedure)
Method: as §1, §2, §3

[2] = system: Streptococcus faecalis (Group D); assay: MIC on mass basis (Example V procedure); settings: Enterococcus faecalis, read-out: MIC
Method: as §1

Streptococcus pyogenes = assay: MIC on mass basis (Example V procedure)
Method: as §1

Corynebacterium sp. = assay: MIC on mass basis (Example V procedure)
Method: as §1

[3] = Table 6, range over the organisms of Table 5, NI = no inhibition
[4] = Table 12, Staphylococcus aureus
[5] = Table 12, Saccharomyces cerevisiae
[6] = Table 12, Pseudomonas aeruginosa
[7] = Table 12, Nocardia asteroides, read-out: MIC
[8] = Table 12, Streptococcus faecalis (Group D)
[9] = Table 12, Streptococcus pyogenes, read-out: MIC
[10] = Table 12, Corynebacterium sp., read-out: MIC

| Compound | MIC (Escherichia coli; Table 12, Eschericia coli) | MIC (Candida albicans; Table 12, Candida albicans) | MIC (Staphylococcus aureus; [4]) | MIC (Saccharomyces cerevisiae; [5]) | MIC (Pseudomonas aeruginosa; [6]) | MIC (Nocardia asteroides; [7]) | MIC [2, 8] | MIC (Streptococcus pyogenes; [9]) | MIC (Corynebacterium sp.; [10]) | other results |
| --- | --- | --- | --- | --- | --- | --- | --- | --- | --- | --- |
| CCCCCCCCCC(=O)OCC(O)CO (centres unmarked) [1-mono-caprin] |  |  |  |  |  |  |  |  |  | MIC [1, 3]: 100 to 2000 µM (≈ 24.6 to 493 µg/mL) |
| Cc1cc(C(C)(C)C)c(O)c(C(C)(C)C)c1 [BHT, 2,6-di-tert-butyl-4-methylphenol] | > 5000 µg/mL | > 5000 µg/mL | > 5000 µg/mL | > 5000 µg/mL | > 5000 µg/mL | 1000 µg/mL | > 5000 µg/mL | 1000 µg/mL (≈ 4.54 mM) | 100 µg/mL (≈ 0.454 mM) | MIC (Escherichia coli; Table 16, Escherichia coli, no unit in table (Example 5 procedure, mass basis)): > 1000 µg/mL; MIC (Candida albicans; Table 16, Candida albicans, no unit in table): > 1000 µg/mL; MIC (Staphylococcus aureus; Table 16, Staphylococcus aureus, no unit in table): > 1000 µg/mL; MIC (Saccharomyces cerevisiae; Table 16, Saccharomyces cerevisiae, no unit in table): > 1000 µg/mL; MIC (Pseudomonas aeruginosa; Table 16, Pseudomonas aeruginosa, no unit in table): > 1000 µg/mL; MIC (Nocardia asteroides; Table 16, Nocardia asteroides, no unit in table): 1,000; MIC ([2]; Table 16, Streptococcus faecalis (Group D), no unit in table): > 1000 µg/mL; MIC (Streptococcus pyogenes; Table 16, Streptococcus pyogenes, no unit in table): 1,000; MIC (Corynebacterium sp.; Table 16, Corynebacterium sp., no unit in table): 100 |
| CCc1cc(C(C)(C)C)c(O)c(C(C)(C)C)c1 [C2, 2,6-di-tert-butyl-4-ethylphenol] | > 5000 µg/mL | > 5000 µg/mL | 5000 µg/mL | > 5000 µg/mL | > 5000 µg/mL | 500 µg/mL | 2500 µg/mL (≈ 10.7 mM) | 1000 µg/mL (≈ 4.27 mM) | 1000 µg/mL (≈ 4.27 mM) |  |
| CCCCc1cc(C(C)(C)C)c(O)c(C(C)(C)C)c1 [C4, 2,6-di-tert-4-butylphenol] | > 5000 µg/mL | > 5000 µg/mL | > 5000 µg/mL | > 5000 µg/mL | > 5000 µg/mL | 500 µg/mL | > 5000 µg/mL | 5000 µg/mL (≈ 19.1 mM) | 1000 µg/mL (≈ 3.81 mM) |  |
| CCCCCCc1cc(C(C)(C)C)c(O)c(C(C)(C)C)c1 [C6, 2,6-di-tert-4-hexylphenol] | > 5000 µg/mL | > 5000 µg/mL | > 5000 µg/mL | > 5000 µg/mL | > 5000 µg/mL | 5000 µg/mL | > 5000 µg/mL | > 5000 µg/mL | 5000 µg/mL (≈ 17.2 mM) |  |
| CCCCCCCCc1cc(C(C)(C)C)c(O)c(C(C)(C)C)c1 [C8, 2,6-di-tert-4-octylphenol] | > 5000 µg/mL | > 5000 µg/mL | > 5000 µg/mL | > 5000 µg/mL | > 5000 µg/mL | 5000 µg/mL | > 5000 µg/mL | > 5000 µg/mL | 5000 µg/mL (≈ 15.7 mM) |  |
| CCCCCCCCCCc1cc(C(C)(C)C)c(O)c(C(C)(C)C)c1 [C10, 2,6-di-tert-4-decylphenol] | > 5000 µg/mL | > 5000 µg/mL | > 5000 µg/mL | > 5000 µg/mL | > 5000 µg/mL | 5000 µg/mL | > 5000 µg/mL | > 5000 µg/mL | 5000 µg/mL (≈ 14.4 mM) |  |
| CCCCCCCCCC(=O)O [Capric acid, capric acid] |  |  |  |  |  |  |  |  |  | MIC ([1]; Table 2, range over the organisms of Table 1): 1450 to 5800 µM (≈ 250 to 999 µg/mL); MIC range [1, 3]: 1.45 - 5.8 μ/Mol/ml |
| CCCCCC(=O)O [Caproic, caproic acid] |  |  |  |  |  |  |  |  |  | Inhibition in words ([1]; saturated acids, Table 1): not inhibitory at all |
| CCCCCCCCCCCCN [Dodecylamine HCl] |  |  |  |  |  |  |  |  |  | MIC [1]: 28 to 112 µM |
